Columns and labels:
Experiment in all cases: competitive isoTOP-ABPP
Assay type in all cases: binding
FAM136A Protein FAM136A = biological target: T1, FAM136A Protein FAM136A (Homo sapiens, UniProt Q96C01); details: for isoTOP-ABPP ratio (R) at liganded lysine Q96C01_K99: 50 uM, in vitro, sol, 231
T1 construct: isoTOP-ABPP experiments performed in cell lysates (in vitro); endogenous in cells; host or cells: soluble proteome of human cancer cell lines (MDA-MB-231; Ramos and Jurkat also prepared)
Outline: (§1)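 Readout: isotopic light/heavy MS1 peak-area ratio (R, DMSO heavy over compound light), median across peptides sharing a modified lysine. Lysate received fragment (activated esters 50 μM, guanidinylating agents 100 μM final) or DMSO, then 0.1 mM STP-alkyne probe for 1 h at ambient temperature.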

[1] = biological target: T2, SOD2 Superoxide dismutase (Homo sapiens, UniProt P04179); details: for isoTOP-ABPP ratio (R) at liganded lysine P04179_K68: 50 uM, in vitro, sol, 231
T2 construct: isoTOP-ABPP experiments performed in cell lysates (in vitro); endogenous in cells; host or cells: MDA-MB-231 soluble lysate
T2 sequence (P04179 25-222): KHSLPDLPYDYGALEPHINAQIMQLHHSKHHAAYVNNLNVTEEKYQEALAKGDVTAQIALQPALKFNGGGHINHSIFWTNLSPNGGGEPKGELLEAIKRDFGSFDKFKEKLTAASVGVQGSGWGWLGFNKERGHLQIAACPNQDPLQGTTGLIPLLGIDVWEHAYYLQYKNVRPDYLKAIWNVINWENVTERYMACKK
Outline: as §1

[2] = biological target: T3, SMPD1 Sphingomyelin phosphodiesterase (Homo sapiens, UniProt P17405); details: for isoTOP-ABPP ratio (R) at liganded lysine P17405_K118: 50 uM, in vitro, sol, 231
T3 construct: isoTOP-ABPP experiments performed in cell lysates (in vitro); endogenous in cells; host or cells: soluble proteome of human cancer cell lines (MDA-MB-231; Ramos and Jurkat also prepared)
T3 sequence (P17405 47-631): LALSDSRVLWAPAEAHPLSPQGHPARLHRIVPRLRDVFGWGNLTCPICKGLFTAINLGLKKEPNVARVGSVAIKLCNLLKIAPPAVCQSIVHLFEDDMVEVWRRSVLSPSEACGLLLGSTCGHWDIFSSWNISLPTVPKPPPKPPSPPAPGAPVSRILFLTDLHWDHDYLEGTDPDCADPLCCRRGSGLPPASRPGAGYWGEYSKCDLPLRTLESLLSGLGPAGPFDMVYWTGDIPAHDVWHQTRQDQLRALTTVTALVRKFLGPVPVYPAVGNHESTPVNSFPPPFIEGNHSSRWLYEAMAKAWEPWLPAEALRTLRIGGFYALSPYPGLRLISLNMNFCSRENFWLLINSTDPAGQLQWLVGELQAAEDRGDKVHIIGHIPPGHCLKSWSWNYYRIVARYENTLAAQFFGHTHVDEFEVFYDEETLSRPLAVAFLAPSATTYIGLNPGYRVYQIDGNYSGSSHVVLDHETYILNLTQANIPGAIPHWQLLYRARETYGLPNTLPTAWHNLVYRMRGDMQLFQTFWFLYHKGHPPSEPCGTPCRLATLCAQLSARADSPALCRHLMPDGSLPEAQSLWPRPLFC
Outline: as §1

[3] = biological target: T4, MRPL12 39S ribosomal protein L12, mitochondrial (Homo sapiens, UniProt P52815); details: for isoTOP-ABPP ratio (R) at liganded lysine P52815_K87: 50 uM, in vitro, sol, 231; for isoTOP-ABPP ratio, lysine P52815_K87: 50 uM_231_sol_in vitro, possible other lysine B4DLN1_K87, P52815_K91
T4 construct: isoTOP-ABPP experiments performed in cell lysates (in vitro); endogenous in cells; host or cells: soluble proteome of human cancer cell lines (MDA-MB-231, Ramos, Jurkat)
Outline: as §1

T1 sequence (Q96C01 whole entry): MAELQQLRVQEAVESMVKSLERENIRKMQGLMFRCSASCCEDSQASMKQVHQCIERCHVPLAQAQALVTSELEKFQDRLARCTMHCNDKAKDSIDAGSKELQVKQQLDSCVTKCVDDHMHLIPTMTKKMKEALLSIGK

Structure (SMILES): O=C(CCc1coc2cc(F)ccc2c1=O)Oc1ccc([N+](=O)[O-])cc1[N+](=O)[O-] [fragment 36, 2,4-Dinitrophenyl 3-(7-fluoro-4-oxo-4H-chromen-3-yl)propanoate]
- isoTOP-ABPP ratio (R) at liganded lysine Q96C01_K99 (FAM136A Protein FAM136A): 0.8
- isoTOP-ABPP ratio (R) at liganded lysine P04179_K68 [1]: 2.1

Structure (SMILES): O=C(Oc1ccc([N+](=O)[O-])cc1[N+](=O)[O-])c1ccc(-c2ccccc2)cc1 [fragment 37, 2,4-Dinitrophenyl [1,1′-biphenyl]-4-carboxylate]
- isoTOP-ABPP ratio (R) at liganded lysine Q96C01_K99 (FAM136A Protein FAM136A): 1.0
- isoTOP-ABPP ratio (R) at liganded lysine P04179_K68 [1]: 1.7

Structure (SMILES): O=C(CC12CC3CC(CC(C3)C1)C2)Oc1ccc([N+](=O)[O-])cc1[N+](=O)[O-] [fragment 38, 2,4-Dinitrophenyl 2-(adamantan-1-yl)acetate]
- isoTOP-ABPP ratio (R) at liganded lysine P17405_K118 [2]: 1.2
- isoTOP-ABPP ratio (R) at liganded lysine P52815_K87 [3]: 0.9

Structure (SMILES): O=C(Oc1ccc([N+](=O)[O-])cc1[N+](=O)[O-])c1ccc(Oc2ccccc2)cc1 [fragment 39, 2,4-Dinitrophenyl 4-phenoxybenzoate]
- isoTOP-ABPP ratio (R) at liganded lysine Q96C01_K99 (FAM136A Protein FAM136A): 0.8
- isoTOP-ABPP ratio (R) at liganded lysine P04179_K68 [1]: 1.0
- isoTOP-ABPP ratio (R) at liganded lysine P17405_K118 [2]: 0.8
- isoTOP-ABPP ratio (R) at liganded lysine P52815_K87 [3]: 1.1

Structure (SMILES): O=C(Oc1ccc([N+](=O)[O-])cc1[N+](=O)[O-])c1ccccc1Nc1cccc(C(F)(F)F)c1 [fragment 40, 2,4-Dinitrophenyl 2-((3-(trifluoromethyl)phenyl)amino)benzoate]
- isoTOP-ABPP ratio (R) at liganded lysine Q96C01_K99 (FAM136A Protein FAM136A): 0.8

Structure (SMILES): CC(C)(C)OC(=O)NCCCC(=O)Oc1ccc([N+](=O)[O-])cc1[N+](=O)[O-] [fragment 41, 2,4-Dinitrophenyl 4-((tert-butoxycarbonyl)amino)butanoate]
- isoTOP-ABPP ratio (R) at liganded lysine Q96C01_K99 (FAM136A Protein FAM136A): 0.9
- isoTOP-ABPP ratio (R) at liganded lysine P04179_K68 [1]: 4.8
- isoTOP-ABPP ratio (R) at liganded lysine P17405_K118 [2]: 1.5
- isoTOP-ABPP ratio (R) at liganded lysine P52815_K87 [3]: 4.1

Structure (SMILES): O=C(Oc1ccc([N+](=O)[O-])cc1[N+](=O)[O-])C(c1ccccc1)(c1ccccc1)c1ccccc1 [fragment 42, 2,4-Dinitrophenyl 2,2,2-triphenylacetate]
- isoTOP-ABPP ratio (R) at liganded lysine Q96C01_K99 (FAM136A Protein FAM136A): 0.9
- isoTOP-ABPP ratio (R) at liganded lysine P52815_K87 [3]: 1.0

Structure (SMILES): CC(=O)Oc1ccc([N+](=O)[O-])cc1[N+](=O)[O-] [fragment 43, 2,4-Dinitrophenyl acetate]
- isoTOP-ABPP ratio (R) at liganded lysine Q96C01_K99 (FAM136A Protein FAM136A): 1.1
- isoTOP-ABPP ratio (R) at liganded lysine P04179_K68 [1]: 1.4

Structure (SMILES): N#Cc1ccc(C(=O)Oc2ccc([N+](=O)[O-])cc2[N+](=O)[O-])cc1 [fragment 44, 2,4-Dinitrophenyl 4-cyanobenzoate]
- isoTOP-ABPP ratio, lysine P04179_K68 ([1]; 50 uM_231_sol_in vitro): 1.6
- isoTOP-ABPP ratio, lysine P17405_K118 ([2]; 50 uM_231_sol_in vitro): 0.8
- isoTOP-ABPP ratio, lysine P52815_K87 [3]: 1.1

Structure (SMILES): O=C(Oc1c(F)c(F)c(C(F)(F)F)c(F)c1F)c1cc(C(F)(F)F)cc(C(F)(F)F)c1 [fragment 47, 2,3,5,6-Tetrafluoro-4-(trifluoromethyl)phenyl 3,5-bis(trifluoromethyl)benzoate]
- isoTOP-ABPP ratio, lysine Q96C01_K99 (FAM136A Protein FAM136A; 50 uM_231_sol_in vitro): 0.7
- isoTOP-ABPP ratio, lysine P52815_K87 [3]: 1.1

Structure (SMILES): O=C(Oc1c(F)c(F)cc(F)c1F)c1cc(C(F)(F)F)cc(C(F)(F)F)c1 [fragment 48, 2,3,5,6-Tetrafluorophenyl 3,5-bis(trifluoromethyl)benzoate]
- isoTOP-ABPP ratio, lysine Q96C01_K99 (FAM136A Protein FAM136A; 50 uM_231_sol_in vitro): 5.5
- isoTOP-ABPP ratio, lysine P52815_K87 [3]: 0.9

Structure (SMILES): COC(=O)NC(=NC(=O)OCC1c2ccccc2-c2ccccc21)n1cccn1 [fragment 49, N-Methoxycarbonyl-N′-9-fluorenylmethoxycarbonyl-pyrazole-1-carboxamidine]
- isoTOP-ABPP ratio, lysine Q96C01_K99 (FAM136A Protein FAM136A; 100 uM_231_sol_in vitro): 1.3
- isoTOP-ABPP ratio, lysine P04179_K68 ([1]; 100 uM_231_sol_in vitro): 3.3
- isoTOP-ABPP ratio, lysine P17405_K118 ([2]; 100 uM_231_sol_in vitro): 8.4

Structure (SMILES): CC(C)(C)OC(=O)N=C(NC(=O)OC(C)(C)C)n1cccn1 [fragment 50, reference compound]
- isoTOP-ABPP ratio, lysine P17405_K118 ([2]; 100 uM_231_sol_in vitro): 1.3

Structure (SMILES): NC(=O)c1cc(C(F)(F)F)cc(C(F)(F)F)c1 [fragment 51, reference compound]
- isoTOP-ABPP ratio, lysine P04179_K68 ([1]; 50 uM_231_sol_in vitro): 0.9
- isoTOP-ABPP ratio, lysine P17405_K118 ([2]; 50 uM_231_sol_in vitro): 0.9
- isoTOP-ABPP ratio, lysine P52815_K87 [3]: 0.9

Reference: patent publication US20210255193A1, “LYSINE REACTIVE PROBES AND USES THEREOF” (The Scripps Research Institute, priority 2017, published 2021)
